The subject of one experiment is HIV 115-mer PCR product. The experiment is described as follows: Photoproduct sterilization of PCR (HIV 115-mer carryover). The following applies: 30 cycles; for sterilization of PCR (Example 52): 100 μl/ml. Format: biochemical. An excerpt: FIG. 36 describes a series of oligonucleotides that can be used with the PCR amplification technique. Two primers are described (SK-38 and SK-39) that are complementary to a segment of the HIV genome. Each primer is complementary to sequences at the […] of one of each of two strands of a 115 base pair long segment of the HIV genome. In addition, FIG. 36 describes a crosslinkable probe molecule which is capable of hybridizing and crosslinking to one strand of the 115-mer PCR product. Repeated thermal cycling of SK-38 and SK-39 in the presence of Taq polymerase, appropriate reagents, and a target polynucleotide containing at least the 115-mer segment bounded by SK-38/SK-39, will result in the synthesis of both strands of the 115-mer. Therefore, PCR amplification will occur, with both strands of the 115-mer accumulating geometrically. This is in contrast to the oligonuceleotides described in FIG. 26. Only one primer (SK-39) is described in FIG. 26 which is capable hybridizing to the 3′ end of the 71-mer target oligonucleotide (HRI-55). The lack of a second primer in the system of oligonucleotides described by FIG. 26 prevents this system from being amplified geometrically. Repeated thermal cycling of HRI-55 and SK-39 in the presence of Taq polymerase and appropriate reagents will result in the linear accumulation of the complement of HRI-55.
[…] Aliquots of AMDIIIP photoproduct and the unirradiated compound were added (by pipetting) at 50, 100, 200 and 300 μg/ml to 1 μl aliquots of a 10^6 delution of PCR product copies. PCR product was provided by a) preparing template, b) providing template, c) providing PCR reagents, d) providing polymerase, e) mixing PCR reagents, template, and polymerase to initiate PCR, f) cycling to synthesize PCR product.
Step a): Template Preparation. The templates were derived from actual patient samples. Ficoll-Hypaque separated peripheral blood mononuclear cells (PBMCs) are prepared from individuals enrolled in a longitudinal AIDS study. Approximately 1×10^6 cells are added to 10 ml of RPMI containing 10% fetal calf serum. The cells are pelleted by centrifugation at 20×g for 5 minutes and washed twice with 10 ml PBS. The cell pellet is resuspended in a solution of 50 mM KCl, 10 mM Tris-HCl (pH 8.3), 2.5 mM MgCl2 and subsequently lysed by the addition of 0.5% Tween 20 and 0.5% NP40. Samples are digested with 60 μg/ml proteinase K (Sigma) for 1 hour at 60° C. […]
Again, to evaluate the efficacy of this method of sterilization, a subsequent polymerase chain reaction was carried out for 30 cycles in the presence of α-^32P-dCTP. PCR product was then quantitated by running gels (see above), cutting the bands (detected by autoradiography) and counting the bands on a commercial scintillation counter. […]

The subject of another experiment is HIV 115-mer. The experiment in a line: Post-amplification sterilization, isopsoralen present during amplification (Example 55). Type of experiment: biochemical. The conditions noted are these: AMDMIP 400 μg/ml, 30 cycles. The text has this:
For the purposes of this determination, the steps of the following experiment include (see FIG. 42): a) preparing template, b) providing template, c) providing isopsoralen, d) providing PCR reagents, e) providing polymerase, f) mixing isopsoralen, PCR reagents, template, and polymerase to initiate PCR, g) cycling to provide PCR product, h) irradiating, i) carrying over of PCR product into new tubes at specific copy numbers, and j) amplifying in a subsequent PCR.
Step a): Template Preparation. HIV 115-mer was used as template.
Step b) Providing Template. For the reaction, template (equivalent to approximately 107 copies) in buffer was provided for the reaction vessel. Step c) Providing Isopsoralen. AMDMIP (400 μg/ml) was provided as the isopsoralen. This is a higher concentration of AMDMIP than used in the previous example.
Step d), e), f) and g). PCR reagents and polymerase were provided, mixed and cycled as described above. This time, however, isopsoralen is part of the pre-amplification mixture.
Step h) Irradiation. Irradiation was performed on the CE-III device for 15 minutes at 25° C.
Step i) Carrying over of PCR product. Aliquots of PCR product were added into six new reaction tubes—two tubes for each dilution. Dilutions to yield 10^7, 10^5 and 10^3 copies were made. […]

Each structure is given as a SMILES string.

Consider `Cc1oc2ccc3c(C)cc(=O)oc3c2c1CN` [AMDMIP, 4′-Aminomethyl-4,5′-dimethylisopsoralen], for which the “sterilization of PCR (Example 52)” value with HIV 115-mer PCR product (AMDMIP irradiated in CE-III device 15 minutes) is “extensive sterilization”; in the experiment on HIV 115-mer PCR product (AMDMIP irradiated in PTI device 15 minutes), “little sterilization”; in the experiment with HIV 115-mer PCR product (unirradiated AMDMIP) it was “PCR product is clearly evident”. Moreover, the “sterilization of PCR” value in the experiment with HIV 115-mer PCR product (unirradiated compound at 50, 100, 200, 300 μg/ml) was “no sterilization”. Also, the post-amplification sterilization result with HIV 115-mer (CE-III 15 minutes at 25° C., 10^7, 10^5, 10^3 copies carried over) is “complete, post-amplification sterilization”. For the same molecule, the “reamplification of carryover with AMDMIP, not light-treated” value in the experiment with HIV 115-mer is recorded as “show amplification”.

Values taken from patent US6680025B2, “Device and method for photoactivation” (Cerus Corporation, priority 1989, dated 2004).
